# Experimental data from patent US11739098B2 (BRISTOL-MYERS SQUIBB COMPANY, priority 2017, dated 2023).
# pIC50: −log10 of the molar value.
# Key:
# Assay type in all cases: cell-based
# human TLR9 = target: T1, human TLR9 (Homo sapiens, UniProt Q9NR96); assay: TLR9 inhibition reporter assay (HEK-Blue cells, SEAP reporter, ODN2006 stimulation); details: HEK-Blue cells overexpressing human TLR9, SEAP reporter, ODN2006 5 nM
# T1 construct: host or cells: HEK-Blue cells (HEK293-derived reporter line)
# T1 sequence (Q9NR96 26-1032): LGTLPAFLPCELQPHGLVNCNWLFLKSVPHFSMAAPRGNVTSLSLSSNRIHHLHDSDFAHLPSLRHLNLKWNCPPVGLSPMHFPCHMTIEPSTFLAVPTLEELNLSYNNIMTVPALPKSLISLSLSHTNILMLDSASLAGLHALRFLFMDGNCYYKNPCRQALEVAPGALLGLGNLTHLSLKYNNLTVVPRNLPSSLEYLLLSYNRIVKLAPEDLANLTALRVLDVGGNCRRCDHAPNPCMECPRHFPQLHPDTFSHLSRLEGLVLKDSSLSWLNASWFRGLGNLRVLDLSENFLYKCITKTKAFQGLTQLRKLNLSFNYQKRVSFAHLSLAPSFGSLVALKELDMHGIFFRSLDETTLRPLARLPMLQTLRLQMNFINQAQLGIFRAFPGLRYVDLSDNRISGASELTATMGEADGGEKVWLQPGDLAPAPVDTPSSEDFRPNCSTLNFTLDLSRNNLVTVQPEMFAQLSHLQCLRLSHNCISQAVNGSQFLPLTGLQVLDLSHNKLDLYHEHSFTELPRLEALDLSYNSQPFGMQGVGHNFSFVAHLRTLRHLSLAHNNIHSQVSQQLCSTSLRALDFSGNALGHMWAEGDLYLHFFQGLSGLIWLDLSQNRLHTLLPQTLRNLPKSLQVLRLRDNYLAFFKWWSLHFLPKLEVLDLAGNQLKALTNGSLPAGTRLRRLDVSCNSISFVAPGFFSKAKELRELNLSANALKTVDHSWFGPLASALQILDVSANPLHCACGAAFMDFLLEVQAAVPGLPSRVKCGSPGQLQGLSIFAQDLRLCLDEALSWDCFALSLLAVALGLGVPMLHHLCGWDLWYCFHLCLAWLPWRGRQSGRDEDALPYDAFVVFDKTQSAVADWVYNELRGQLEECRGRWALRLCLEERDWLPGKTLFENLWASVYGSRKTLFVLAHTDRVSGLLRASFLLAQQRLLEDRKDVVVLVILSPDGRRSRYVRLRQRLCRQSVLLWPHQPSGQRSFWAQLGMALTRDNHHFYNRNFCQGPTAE
# Summary of the method: (§1)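 Read-out is SEAP activity in HEK-Blue detection medium after 22 h at 37 °C, converted to percent inhibition against agonist-plus-DMSO and reference-inhibitor controls. Cells saw compound (0.05 nM–50 μM, 30 min, room temperature) before gardiquimod 7.5 μM, R848 15.9 μM or ODN2006 5 nM for TLR7, TLR8 and TLR9, respectively.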
# human TLR7 = target: T2, human TLR7 (Homo sapiens, UniProt Q9NYK1); assay: TLR7 inhibition reporter assay (HEK-Blue cells, SEAP reporter, gardiquimod stimulation); details: HEK-Blue cells overexpressing human TLR7, SEAP reporter, gardiquimod 7.5 μM
# T2 construct: host or cells: HEK-Blue cells (HEK293-derived reporter line)
# T2 sequence (Q9NYK1 27-1049): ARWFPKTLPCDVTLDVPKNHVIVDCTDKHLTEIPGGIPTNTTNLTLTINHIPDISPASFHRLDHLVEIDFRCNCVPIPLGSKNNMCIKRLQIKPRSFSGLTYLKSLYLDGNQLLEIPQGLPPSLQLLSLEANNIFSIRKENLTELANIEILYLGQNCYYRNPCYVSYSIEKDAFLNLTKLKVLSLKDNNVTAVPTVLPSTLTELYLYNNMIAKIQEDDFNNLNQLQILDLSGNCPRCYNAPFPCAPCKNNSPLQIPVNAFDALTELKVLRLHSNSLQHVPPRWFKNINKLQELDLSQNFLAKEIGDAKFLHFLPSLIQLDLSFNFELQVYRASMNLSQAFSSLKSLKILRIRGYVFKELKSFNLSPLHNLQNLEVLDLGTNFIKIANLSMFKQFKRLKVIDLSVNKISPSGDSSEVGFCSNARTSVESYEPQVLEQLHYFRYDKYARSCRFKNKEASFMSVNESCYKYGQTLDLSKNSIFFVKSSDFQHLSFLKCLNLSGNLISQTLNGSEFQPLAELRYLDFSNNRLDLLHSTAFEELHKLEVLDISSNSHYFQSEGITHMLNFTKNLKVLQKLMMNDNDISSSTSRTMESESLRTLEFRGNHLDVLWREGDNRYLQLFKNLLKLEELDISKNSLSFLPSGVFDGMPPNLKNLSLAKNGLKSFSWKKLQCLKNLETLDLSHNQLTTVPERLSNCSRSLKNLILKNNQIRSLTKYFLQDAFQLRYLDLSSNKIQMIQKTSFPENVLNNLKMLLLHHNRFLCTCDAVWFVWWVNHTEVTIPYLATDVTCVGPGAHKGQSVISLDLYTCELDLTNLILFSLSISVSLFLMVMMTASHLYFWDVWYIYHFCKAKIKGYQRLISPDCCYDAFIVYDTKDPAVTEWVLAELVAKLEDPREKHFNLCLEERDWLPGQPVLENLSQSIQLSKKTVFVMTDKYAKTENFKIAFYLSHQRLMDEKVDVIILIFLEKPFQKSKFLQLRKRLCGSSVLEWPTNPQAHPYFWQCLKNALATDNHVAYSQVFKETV
# Summary of the method: as §1
# human TLR8 = target: T3, human TLR8 (Homo sapiens, UniProt Q9NR97); assay: TLR8 inhibition reporter assay (HEK-Blue cells, SEAP reporter, R848 stimulation); details: HEK-Blue cells overexpressing human TLR8, SEAP reporter, R848 15.9 μM
# T3 construct: host or cells: HEK-Blue cells (HEK293-derived reporter line)
# T3 sequence (Q9NR97 27-1041): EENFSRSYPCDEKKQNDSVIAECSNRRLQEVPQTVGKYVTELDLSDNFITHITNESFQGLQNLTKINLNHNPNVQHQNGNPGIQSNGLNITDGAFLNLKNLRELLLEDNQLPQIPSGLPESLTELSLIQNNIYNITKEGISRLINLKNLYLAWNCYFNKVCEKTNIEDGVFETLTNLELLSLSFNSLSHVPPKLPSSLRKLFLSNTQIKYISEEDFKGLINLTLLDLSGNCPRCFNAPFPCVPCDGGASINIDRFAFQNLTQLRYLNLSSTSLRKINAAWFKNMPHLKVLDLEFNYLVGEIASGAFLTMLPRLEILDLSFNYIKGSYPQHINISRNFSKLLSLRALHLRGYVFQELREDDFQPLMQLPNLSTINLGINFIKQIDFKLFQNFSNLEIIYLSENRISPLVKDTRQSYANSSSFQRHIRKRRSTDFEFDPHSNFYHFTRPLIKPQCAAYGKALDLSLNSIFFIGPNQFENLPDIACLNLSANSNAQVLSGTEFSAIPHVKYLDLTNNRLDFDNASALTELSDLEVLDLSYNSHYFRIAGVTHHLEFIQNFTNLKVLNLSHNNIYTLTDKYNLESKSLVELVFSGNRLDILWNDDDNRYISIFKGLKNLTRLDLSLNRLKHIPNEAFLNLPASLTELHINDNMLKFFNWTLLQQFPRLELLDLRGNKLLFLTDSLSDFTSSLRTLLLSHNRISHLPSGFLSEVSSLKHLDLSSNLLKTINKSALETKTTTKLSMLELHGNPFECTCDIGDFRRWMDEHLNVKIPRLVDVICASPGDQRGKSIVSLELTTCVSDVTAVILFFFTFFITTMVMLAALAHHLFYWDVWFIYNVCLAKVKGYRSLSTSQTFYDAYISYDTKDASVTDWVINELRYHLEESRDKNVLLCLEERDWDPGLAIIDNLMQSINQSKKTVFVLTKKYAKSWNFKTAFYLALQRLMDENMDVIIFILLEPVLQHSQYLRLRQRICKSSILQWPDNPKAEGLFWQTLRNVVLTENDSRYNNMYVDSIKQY
# Summary of the method: as §1
compound,measurement,setting,value
"Cc1cc(-c2[nH]c3ccc(C4CCN(CC(N)=O)CC4)cc3c2C(C)C)cn2nnnc12 [Example 311, 2-(4-(3-isopropyl-2-(8-methyltetrazolo[1,5-a]pyridin-6-yl)-1H-indol-5-yl)piperidin-1-yl) acetamide]",pIC50,human TLR9,4.30 to 6.00
same,pIC50,human TLR7,> 7.00
same,pIC50,human TLR8,> 7.00
"CNC(=O)CN1CCC(c2ccc3[nH]c(-c4cc(C)c5nc(C(=O)N(C)CCO)cn5c4)c(C(C)C)c3c2)CC1 [Example 345, N-(2-hydroxyethyl)-6-(3-isopropyl-5-(1-(2-(methylamino)-2-oxoethyl)piperidin-4-yl)-1H-indol-2-yl)-N,8-dimethylimidazo[1,2-a]pyridine-2-carboxamide]",pIC50,human TLR9,4.30 to 6.00
same,pIC50,human TLR7,> 7.00
same,pIC50,human TLR8,6.00 to 7.00
"Cc1c[nH]c2nccc(-c3[nH]c4ccc(C5CCNCC5)cc4c3C(C)C)c12 [Example 215, 4-(3-isopropyl-5-(piperidin-4-yl)-1H-indol-2-yl)-3-methyl-1H-pyrrolo[2,3-b]pyridine]",pIC50,human TLR9,4.30 to 6.00
same,pIC50,human TLR7,6.00 to 7.00
same,pIC50,human TLR8,6.00 to 7.00
"CC(C)c1c(-c2ccnc3[nH]ncc23)[nH]c2ccc(C3CCN(C(=O)CN4CCC[C@H]4C(N)=O)CC3)cc12 [Example 584, (S)-1-(2-(4-(3-isopropyl-2-(1H-pyrazolo[3,4-b]pyridin-4-yl)-1H-indol-5-yl)piperidin-1-yl)-2-oxoethyl)pyrrolidine-2-carboxamide]",pIC50,human TLR9,4.30 to 6.00
same,pIC50,human TLR7,> 7.00
same,pIC50,human TLR8,> 7.00
"CCc1c(-c2ccnc3[nH]cc(C(C)C)c23)[nH]c2ccc(C3CCNCC3)cc12 [Example 221, 4-(3-ethyl-5-(piperidin-4-yl)-1H-indol-2-yl)-3-isopropyl-1H-pyrrolo[2,3-b]pyridine]",pIC50,human TLR9,6.00 to 7.00
same,pIC50,human TLR7,6.00 to 7.00
same,pIC50,human TLR8,4.30 to 6.00
"Cc1cc2nc(-c3[nH]c4ccc(C5CCNCC5)cc4c3C(C)C)ccn2n1 [Example 149, 5-(3-isopropyl-5-(piperidin-4-yl)-1H-indol-2-yl)-2-methylpyrazolo[1,5-a]pyrimidine]",pIC50,human TLR9,4.30 to 6.00
same,pIC50,human TLR7,6.00 to 7.00
same,pIC50,human TLR8,4.30 to 6.00
"CNC(=O)CN1CCC(c2ccc3[nH]c(-c4cn5nnnc5cc4C)c(C(C)C)c3c2)CC1 [Example 316, 2-(4-(3-isopropyl-2-(7-methyltetrazolo[1,5-a]pyridin-6-yl)-1H-indol-5-yl)piperidin-1-yl)-N-methylacetamide]",pIC50,human TLR9,4.30 to 6.00
same,pIC50,human TLR7,> 7.00
same,pIC50,human TLR8,6.00 to 7.00
"CNC(=O)CN1CCC(c2ccc3[nH]c(-c4cc(C)c5ncsc5n4)c(C(C)C)c3c2)CC1 [Example 406, 2-(4-(3-isopropyl-2-(7-methylthiazolo[5,4-b]pyridin-5-yl)-1H-indol-5-yl)piperidin-1-yl)-N-methylacetamide]",pIC50,human TLR9,4.30 to 6.00
same,pIC50,human TLR7,> 7.00
same,pIC50,human TLR8,> 7.00
"Fc1cc(-c2[nH]c3ccc(C4CCNCC4)cc3c2CC(F)F)cn2ccnc12 [Example 131, 6-(3-(2,2-difluoroethyl)-5-(piperidin-4-yl)-1H-indol-2-yl)-8-fluoroimidazo[1,2-a] pyridine]",pIC50,human TLR9,6.00 to 7.00
same,pIC50,human TLR7,> 7.00
same,pIC50,human TLR8,6.00 to 7.00
"CC1CC(N2CCC(c3ccc4[nH]c(-c5ccnc6[nH]ncc56)c(C(C)C)c4c3)CC2)CCN1 (stereo not drawn) [Example 820, 4-(3-isopropyl-5-(2′-methyl-[1,4′-bipiperidin]-4-yl)-1H-indol-2-yl)-1H-pyrazolo[3,4-b]pyridine]",pIC50,human TLR9,> 7.00
same,pIC50,human TLR7,> 7.00
same,pIC50,human TLR8,> 7.00
"CC(C)c1c(-c2cnc3nccn3c2)[nH]c2ccc(C3CCN(CC(C)(C)O)CC3)cc12 [Example 761, 1-(4-(2-(imidazo[1,2-a]pyrimidin-6-yl)-3-isopropyl-1H-indol-5-yl)piperidin-1-yl)-2-methylpropan-2-ol]",pIC50,human TLR9,6.00 to 7.00
same,pIC50,human TLR7,> 7.00
same,pIC50,human TLR8,6.00 to 7.00
"Cc1cc(-c2[nH]c3ccc(C4CCN(C(=O)CCN5CCC(F)(F)CC5)CC4)cc3c2C(C)C)cn2nnnc12 [Example 628, 3-(4,4-difluoropiperidin-1-yl)-1-(4-(3-isopropyl-2-(8-methyltetrazolo[1,5-a]pyridin-6-yl)-1H-indol-5-yl)piperidin-1-yl)propan-1-one]",pIC50,human TLR9,4.30 to 6.00
same,pIC50,human TLR7,> 7.00
same,pIC50,human TLR8,> 7.00
"CCc1c(-c2ccnc3c(N)n[nH]c23)[nH]c2ccc(C3CCNCC3)cc12 [Example 238, 7-(3-ethyl-5-(piperidin-4-yl)-1H-indol-2-yl)-1H-pyrazolo[4,3-b]pyridin-3-amine]",pIC50,human TLR9,4.30 to 6.00
same,pIC50,human TLR7,> 7.00
same,pIC50,human TLR8,6.00 to 7.00
"COc1cc(-c2[nH]c3ccc(C4CCN(Cc5cnn[nH]5)CC4)cc3c2C(C)C)nn2ncnc12 [Example 860, 6-(5-(1-((1H-1,2,3-triazol-5-yl)methyl)piperidin-4-yl)-3-isopropyl-1H-indol-2-yl)-8-methoxy-[1,2,4]triazolo[1,5-b]pyridazine]",pIC50,human TLR9,4.30 to 6.00
same,pIC50,human TLR7,> 7.00
same,pIC50,human TLR8,> 7.00
